Results taken from patent US8278304B2, “Substituted 4-hydroxypyrimidine-5-carboxamides” (Merck Sharp & Dohme Corp., priority 2008, dated 2012).
Structures can show the parent of a compound that is named as a salt. Blank lines part the entries; values can stand above or below the compound they belong to.

Target: T1, PHD2 (Homo sapiens, UniProt Q9GZT9)
T1 construct: FLAG-tagged full length PHD2 expressed in and purified from baculovirus-infected Sf9 cells; FLAG; made in house; host or cells: baculovirus-infected Sf9 cells
T1 sequence (Q9GZT9 whole entry): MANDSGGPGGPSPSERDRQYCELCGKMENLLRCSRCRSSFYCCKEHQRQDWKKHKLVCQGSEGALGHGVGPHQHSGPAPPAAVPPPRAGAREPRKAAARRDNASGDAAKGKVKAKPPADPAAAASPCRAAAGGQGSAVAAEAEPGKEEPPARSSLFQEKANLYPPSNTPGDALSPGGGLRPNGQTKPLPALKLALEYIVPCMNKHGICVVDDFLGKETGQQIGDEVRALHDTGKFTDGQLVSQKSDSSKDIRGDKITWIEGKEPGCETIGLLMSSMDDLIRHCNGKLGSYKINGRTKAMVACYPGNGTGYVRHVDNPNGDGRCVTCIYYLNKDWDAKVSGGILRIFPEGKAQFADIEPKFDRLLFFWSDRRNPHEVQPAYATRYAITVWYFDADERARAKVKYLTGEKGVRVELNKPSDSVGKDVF
Test: PHD2 / HIF-1α peptide hydroxylation assay, time resolved fluorescence (VHL complex detection)
Format: biochemical
Settings: FLAG-tagged full length PHD2; 0.2 μM 2-oxoglutarate, 0.5 μM HIF-1α peptide; read-out: PHD2 Activity (PHD2 binding activity expressed as IC50 (nM))
Procedure: To each well of a 96-well plate was added 1 μL of test compound in DMSO and 20 μl of assay buffer (50 mM Tris pH 7.4/0.01% Tween-20/0.1 mg/ml bovine serum albumin/10 μM ferrous sulfate/1 mM sodium ascorbate/20 μg/ml catalase) containing 0.15 μg/ml FLAG-tagged full length PHD2 expressed in and purified from baculovirus-infected Sf9 cells. After a 30 min preincubation at room temperature, the enzymatic reactions were initiated by the addition of 4 μL of substrates (final concentrations of 0.2 μM 2-oxoglutarate and 0.5 μM HIF-1α peptide biotinyl-[…]).

- IC50: 10 to 100 nM
SMILES: O=C(NCc1ccc(C(F)(F)F)nc1)c1cnc(-n2cccn2)nc1O [Example 10]

- IC50: ≤ 10 nM
SMILES: O=C(NCc1ccc(-c2ccccc2)nc1)c1cnc(-n2cccn2)nc1O [Example 105, 4-Hydroxy-N-[(6-phenylpyridin-3-yl)methyl]-2-(1H-pyrazol-1-yl)pyrimidine-5-carboxamide]

- IC50: 10 to 100 nM
SMILES: Cc1nc(-c2ncc(C(=O)NC(c3ccccc3)c3ccccc3)c(O)n2)cs1 [Example 39, N-(diphenylmethyl)-4-hydroxy-2-(2-methyl-1,3-thiazol-4-yl)pyrimidine-5-carboxamide]

- IC50: ≤ 10 nM
SMILES: CC(C)(NC(=O)c1cnc(-n2cccn2)nc1O)c1ccc(F)cc1 [Example 73, N-[1-(4-fluorophenyl)-1-methylethyl]-4-hydroxy-2-(1H-pyrazol-1-yl)pyrimidine-5-carboxamide]

- IC50: ≤ 10 nM
SMILES: CCCC(NC(=O)c1cnc(-n2cccn2)nc1O)c1ccc(-c2ccccc2)cc1 (centres unmarked) [Example 165, N-[1-(biphenyl-4-yl)butyl]-4-hydroxy-2-(1H-pyrazol-1-yl)pyrimidine-5-carboxamide]

- IC50: 10 to 100 nM
SMILES: CC(C)CC(NC(=O)c1cnc(-c2cccnn2)nc1O)c1ccc(C#N)cc1 (single isomer, unassigned) [Example 159, N-[1-(4-cyanophenyl)-3-methylbutyl]-4-hydroxy-2-(pyridazin-3-yl)pyrimidine-5-carboxamide]

- IC50: ≤ 10 nM
SMILES: COc1ccc(C(NC(=O)c2cnc(-n3cccn3)nc2O)c2cnccn2)cc1 (centres unmarked) [Example 166, 4-hydroxy-N-[(4-methoxyphenyl)(pyrazin-2-yl)methyl]-2-(1H-pyrazol-1-yl)pyrimidine-5-carboxamide]

- IC50: 10 to 100 nM
SMILES: O=C(NCc1ccc(C(F)(F)F)cn1)c1cnc(-n2cccn2)nc1O [Example 130, 4-hydroxy-2-(1H-pyrazol-1-yl)-N-{[5-(trifluoromethyl)pyridin-2-yl]methyl}pyrimidine-5-carboxamide]

- IC50: ≤ 10 nM
SMILES: O=C(N[C@@H](C(=O)O)c1ccccc1)c1cnc(-n2cccn2)nc1O [Example 124, (2R)-({[4-hydroxy-2-(1H-pyrazol-1-yl)pyrimidin-5-yl]carbonyl}amino)(phenyl)ethanoic acid]

- IC50: ≤ 10 nM
SMILES: O=C(NC(c1ccccc1)c1ccccn1)c1cnc(-n2cccn2)nc1O (centres unmarked) [Example 125, 4-hydroxy-N-[phenyl(pyridin-2-yl)methyl]-2-(1H-pyrazol-1-yl)pyrimidine-5-carboxamide trifluoroacetate (salt)]

- IC50: ≤ 10 nM
SMILES: O=C(N[C@@H](CO)c1ccccc1)c1cnc(-n2cccn2)nc1O [Example 123, 4-hydroxy-N-[(1R)-2-hydroxy-1-phenylethyl]-2-(1H-pyrazol-1-yl)pyrimidine-5-carboxamide]

- IC50: 10 to 100 nM
SMILES: COC(=O)c1ccc(CNC(=O)c2cnc(-n3cccn3)nc2O)cc1 [Example 103, methyl 4-[({[4-hydroxy-2-(1H-pyrazol-1-yl)pyrimidin-5-yl]carbonyl}amino)methyl]benzoate]

- IC50: ≤ 10 nM
SMILES: Cc1csc(C(C)NC(=O)c2cnc(-n3cccn3)nc2O)n1 (centres unmarked) [Example 117, 4-hydroxy-N-[1-(4-methyl-1,3-thiazol-2-yl)ethyl]-2-(1H-pyrazol-1-yl)pyrimidine-5-carboxamide hydrochloride]

- IC50: ≤ 10 nM
SMILES: COc1ccc(C(NC(=O)c2cnc(-n3cccn3)nc2O)c2ccc(OC)nc2)cc1 (centres unmarked) [Example 167, 4-hydroxy-N-[(4-methoxyphenyl)(6-methoxypyridin-3-yl)methyl]-2-(1H-pyrazol-1-yl)pyrimidine-5-carboxamide trifluoroacetate (salt)]

- IC50: ≤ 10 nM
SMILES: CC(C)C(NC(=O)c1cnc(-n2cccn2)nc1O)c1ccccc1 (centres unmarked) [Example 131, 4-hydroxy-N-(2-methyl-1-phenylpropyl)-2-(1H-pyrazol-1-yl)pyrimidine-5-carboxamide]

- IC50: ≤ 10 nM
SMILES: CC(NC(=O)c1cnc(-n2cccn2)nc1O)c1ccc(C(F)(F)F)nc1 (single isomer, unassigned) [Example 141, 4-hydroxy-2-(1H-pyrazol-1-yl)-N-{1-[6-(trifluoromethyl)pyridin-3-yl]ethyl}pyrimidine-5-carboxamide]

- IC50: ≤ 10 nM
SMILES: O=C(NCc1ccc(Oc2ccc(F)cc2)cc1)c1cnc(-n2cccn2)nc1O [Example 99, N-[4-(4-fluorophenoxy)benzyl]-4-hydroxy-2-(1H-pyrazol-1-yl)pyrimidine-5-carboxamide]

The remaining lines, values behind:

SMILES: COc1ccc(C(NC(=O)c2cnc(-c3cccnn3)nc2O)c2ccc(C#N)nc2)cc1 (centres unmarked) [Example 112, N-[(6-cyanopyridin-3-yl)(4-methoxyphenyl)methyl]-4-hydroxy-2-pyridazin-3-ylpyrimidine-5-carboxamide]
- IC50: ≤ 10 nM

SMILES: Cc1cc(C)n(-c2ncc(C(=O)NCc3ccc(OC(F)(F)F)cc3)c(O)n2)n1 [Example 44, 2-(3,5-Dimethyl-1H-pyrazol-1-yl)-4-hydroxy-N-[4-(trifluoromethoxy)benzyl]pyrimidine-5-carboxamide]
- IC50: 100 to 1000 nM

SMILES: COc1ccc(CC(NC(=O)c2cnc(-c3cccnn3)nc2O)c2ccc(C#N)cc2)cc1 (single isomer, unassigned) [Example 160, N-[1-(4-cyanophenyl)-2-(4-methoxyphenyl)ethyl]-4-hydroxy-2-(pyridazin-3-yl)pyrimidine-5-carboxamide]
- IC50: 10 to 100 nM

SMILES: COc1ccc(C(NC(=O)c2cnc(-c3cccnn3)nc2O)c2ccc3ccccc3n2)cc1 (centres unmarked) [Example 171, 4-hydroxy-N-[(4-methoxyphenyl)(quinolin-2-yl)methyl]-2-(pyridazin-3-yl)pyrimidine-5-carboxamide]
- IC50: ≤ 10 nM

SMILES: CC(C)(NC(=O)c1cnc(-c2cnccn2)nc1O)c1ccccc1 [Example 19, 4-Hydroxy-N-(1-methyl-1-phenylethyl)-2-pyrazin-2-ylpyrimidine-5-carboxamide]
- IC50: 10 to 100 nM

SMILES: O=C(N[C@H](c1ccccc1)[C@@H](O)c1ccccc1)c1cnc(-c2cccnn2)nc1O [Example 138]
- IC50: ≤ 10 nM

SMILES: COc1ccc(C(NC(=O)c2cnc(-c3cccnn3)nc2O)c2ccc(OC(F)(F)F)cc2)cc1 (single isomer, unassigned) [Example 152, 4-hydroxy-N-{(4-methoxyphenyl)[4-(trifluoromethoxy)phenyl]methyl}-2-(pyradazin-3-yl)pyrimidine-5-carboxamide]
- IC50: ≤ 10 nM

SMILES: O=C(O)c1ccc(-c2ncc(C(=O)NCc3ccc(F)cc3)c(O)n2)nc1 [Example 3, 6-(5-{[(4-Fluorobenzyl)amino]carbonyl}-4-hydroxypyrimidin-2-yl)nicotinic acid]
- IC50: 10 to 100 nM

SMILES: COc1ccc(C(NC(=O)c2cnc(-c3cccnn3)nc2O)c2ccc(OC)nc2)cc1 (single isomer, unassigned) [Example 191]
- IC50: ≤ 10 nM

SMILES: O=C(NCc1ccc(F)cc1)c1cnc(-c2cnccn2)nc1O [Example 18, N-(4-fluorobenzyl)-4-hydroxy-2-pyrazin-2-ylpyrimidine-5-carboxamide]
- IC50: 100 to 1000 nM

SMILES: COc1ccc(C(NC(=O)c2cnc(-c3cccnn3)nc2O)c2cccc(C#N)c2)cc1 (single isomer, unassigned) [Example 147, N-[(3-cyanophenyl)(4-methoxyphenyl)methyl]-4-hydroxy-2-(pyridazin-3-yl)pyrimidine-5-carboxamide]
- IC50: ≤ 10 nM

SMILES: COc1ccc(C(NC(=O)c2cnc(-c3cccnn3)nc2O)c2ccc(F)cc2)c(OC)c1 (centres unmarked) [Example 176, N-[(2,4-dimethoxyphenyl)(4-fluorophenyl)methyl]-4-hydroxy-2-(pyridazin-3-yl)pyrimidine-5-carboxamide]
- IC50: ≤ 10 nM
